Assay: Physicochemical properties: solubility and pH stability

In the case of `CC(CCc1c(O)cc(C=O)c(C=O)c1O)C(=O)O` (stereo not drawn) [Hericenal C], the Löslichkeit (in Alkoholen und anderen polaren organischen Lösungsmitteln) is reported as “lösliche”, the Stabilität (in neutralem und mild saurem Milieu (vorzugsweise > pH 2)) is reported as “stabil” and the Stabilität (in stark alkalischer Lösung (beispielsweise > pH 8)) is reported as “unbeständig”.

— patent EP0902002A1, “New derivatives of phthalaldehyde, process for their preparation and their use” (Hoechst Marion Roussel Deutschland GmbH, priority 1997, dated 1999)
